Columns and labels:
Type in all cases: cell-based, human
[1] = test system: PT45-P1res cells; test: Caspase-3/-7 assay in PT45-P1res cells; settings: for apoptosis induction after etoposide treatment (caspase-3/-7): inhibitor 10 μmol/L, 20 μg/mL etoposide 24 hours
Method: (a) PT45-P1 res cells were transfected with control siRNA or with two L1CAM specific siRNAs. Western blotting for the detection of full-length L1CAM or of HSP90 as a control for equal protein load was performed (upper panel). In parallel, siRNA transfected PT45-P1res cells were treated with 20 μg/mL etoposide or not for 24 hours and caspase-3/-7 activity was determined. (b) siRNA transfected PT45-P1res cells were subjected to L1CAM immunostaining (L1-11A antibody) or staining with an isotype matched control antibody followed by flow cytometry. One representative histogram is shown. (c) siRNA transfected PT45-P1res cells were analysed by western blotting for the detection of full-length L1 CAM, αv-integrin or HSP90 (d) After overnight siRNA transfection, cells were either left untreated or were either treated with 20 μg/mL etoposide or with 5 μg/mL gemcitabine for 24 hours, followed by either AnnexinV/PI staining and flow cytometry (AnnexinV positive cells over basal) or by caspase-3/-7 assay (n-fold induced caspase-3/-7 activity of basal). (e) PT45-P1res cells were either left untreated (w/o) or were treated with 20 μg/mL etoposide in the absence (w/o) or presence of either 5 μg/mL anti L1CAM antibody (Clone L1-11A) or 5 μg/mL isotype matched control antibody. After 24 hours, cells were analysed by AnnexinV/PI staining or by caspase-3/-7 assay. Means±SD from three independent experiments are shown. * indicates p<0.05.
(§1) As described elsewhere (Sebens Müerköster et al., 2006), apoptosis was determined by staining with annexinV/propidium iodide (Biocarta, Hamburg, Germany) and subsequent fluorescence flow cytometry (GalaxyArgon Plus; DAKO Cytomation, Hamburg, Germany) using the FLOMAX software, and by the detection of caspase-3/-7 activity using a homogeneous luminescent assay (Promega, Mannheim, Germany). All samples were measured in duplicates.
(§2) For L1CAM transfection, PT45-P1 cells were seeded into 6 well plates (2×10^5 cells/well), were grown overnight, followed by transfection with 5 μL/well DIMRIE reagent (Invitrogen) and 0.6 μg/well of the following plasmids: pcDNA3.1 (mock) or pcDNA3.1-L1CAM (L1CAM). Upon transfection for 18 hours, 1 mL medium containing 20% FCS was added and cells were left untreated or were treated as indicated for further 24 hours. For knock down of L1CAM, PT45-P1res cells were seeded into 12 well plates (1×10^5 cells/well), were grown overnight followed by transfection with 12 μL/well RNAiFect reagent (Invitrogen) and 2 μg/well of either Stealth negative control siRNA (Invitrogen) or Stealth L1CAM siRNA (Invitrogen). After overnight transfection, cells were either left untreated or treated as indicated for further 24 hours.

[2] = test system: L1CAM transfected PT45-P1 cells; test: Caspase-3/-7 assay in L1CAM transfected PT45-P1 cells; settings: inhibitor 10 μmol/L, 20 μg/mL etoposide 24 hours
Method: (§3) PT45-P1res cells (a,b) or PT45-P1 cells transfected with L1CAM or an empty control vector (mock) (c,d) were left untreated (w/o) or were either treated with Tapi-0, Tapi-1, GM6001 or L685,458 (each 10 μmol/L) for 24 hours. (a,c) Cellular lysates were subjected to western blotting using either the antibody clone UJ127 from Acris detecting only full-length L1CAM or the pcytL1 antibody detecting also the cytoplasmic part of L1CAM. HSP90 was detected as a control for equal protein load. (b,d) Thirty minutes after treatment with the respective inhibitor, cells were either left untreated or treated with 20 μg/mL etoposide for 24 hours. Then, cells were analysed for caspase-3/-7 activity expressed as n-fold induction of caspase-3/-7 activity of basal. Means±SD from three independent experiments are shown. * indicates p<0.05.
as §1, §2

[3] = test system: L1CAM; test: L1CAM expression in PT45-P1res cells (western blotting, flow cytometry, real-time PCR); settings: for L1CAM expression (full-length 220 kDa and 32 kD fragment): inhibitor 10 μmol/L, 24 hours
Method: After washing in PBS, cells grown in 6-well culture plates were detached with 5 mmol/L EDTA in PBS and then washed with PBS once again. Blocking was conducted in 1% BSA/PBS for 60 min. at room temperature followed by incubation with the anti L1CAM antibody L1-11A or an isotype matched control antibody (1:1000, in 1% BSA/PBS) at 4° C. overnight. Then, cells were washed three times in PBS followed by incubation (60 min, 37° C.) with a goat-anti mouse antibody conjugated with Alexa flour 488 (Dianova, Hamburg, Germany) diluted 1:500 in 1% BSA/PBS. After washing in PBS, cells were resuspended in 500 μL PBS and analysed by fluorescence flow cytometry.
(§4) Cells were seeded into 6 well and 12 well plates, respectively, and transfected or treated as indicated. Then, cells were washed once with PBS and lysed with 1 volume of 2×SDS sample buffer (128 mmol/L Tris-Base, 4.6% SDS, 10% glycerol). Samples were heated for 5 minutes at 95° C. and put on ice for 2 minutes. Protein concentrations were determined using the Dc Protein assay (BioRad). Ten μg of protein adjusted to an appropriate volume of SDS sample buffer containing 0.2 mg/mL bromphenolblue (Serva, Heidelberg, Germany) and 2.5% β-mercaptoethanol (Biomol, Hamburg, Germany) were submitted to electrophoresis on a 4-20% ProGel-Tris-glycin-gel (Anamed, Darmstadt, Germany) and immunoblotting was performed as described previously (Arlt et al, 2001). For detection of L1CAM, a monoclonal antibody (clone UJ127 from Acris Antibodies) was diluted at a concentration of 0.4 μg/mL in 5% nonfat milk powder and 0.05% Tween in TBS (blotto) and incubated overnight at 4° C. For detection of the cytoplasmic domain of L1CAM, the pcytL1 antibody (Mechtersheimer et al., 2001) was used at a concentration of 1 μg/mL in blotto and incubated overnight at 4° C. As control of equal protein load, a polyclonal rabbit antibody for HSP90 (Santa Cruz, Heidelberg, Germany) was diluted 1:2000 in blotto. The mouse anti CD51 antibody from Beckman Coulter GmbH (Krefeld, Germany) was used at a concentration of 1:500 in blotto for detection of human αv integrin. Incubation with the primary antibodies was performed overnight at 4° C. For detection of the primary antibodies, anti-mouse and anti-rabbit HRP-linked antibodies (Cell Signaling), respectively, were used at a dilution of 1:2000 in blotto-TBST at room temperature for 1 hour. After washing in TBST, blots were developed using the LumiGlo peroxidase detection kit (Cell Signaling).
2 μg of total RNA were reverse-transcribed into single-stranded cDNA, as described previously (Schafer et al., 1999). Two μL of cDNA and 0.2 μmol/L gene-specific primers were adjusted with RNAse-free water to a volume of 15 μL. To this mixture, 15 μL of iQ SYBR Green Supermix (BioRad) were added. Primers for the detection of L1CAM (Gavert et al., 2005) were used under the following conditions: 95° C./1 min; 95° C./1 min, 52° C./30 see, 72° C./30 see for 40 cycles; 72° C./10 min. Primers for the detection of iNOS were from Biosource (Ratingen, Germany) and used under the following PCR conditions: 95° C./5 min; 95° C./45 sec, 60° C./45 sec, 72° C./45 sec for 40 cycles; 72° C./10 min. For control, β-actin was amplified in parallel using primers from BD Biosciences Clontech. […] Data were collected during annealing steps and were further analysed by using the i-Cycler iQ Optical system software (BioRad). All samples were analysed in duplicates and data are expressed as amount of mRNA in arbitrary units.

[4] = test system: L1CAM; test: L1CAM cleavage by western blotting in L1CAM transfected PT45-P1 cells; settings: inhibitor 10 μmol/L, 24 hours
Method: as §3, §4

[5] = Induction of apoptosis, Nicoletti staining, in HEK293-hL1 cells; settings: human; L1-expressing HEK293; C2-ceramide 40 μM or staurosporine 2 μM, 24 h, serum-free, Nicoletti staining; read-out: cells still viable after treatment
Method: (§5) Cells (1×10^5 cells per well) were cultured in duplicate in 6 well culture plates and, after washing once with PBS, incubated for the indicated timepoints with or without apoptotic stimuli in serum-free medium. Staurosporine (2 μM), C2-ceramide (40 μM) or cisplatin (17 μM) were used as apoptotic reagents. For hypoxia studies, cells were incubated for different time points under hypoxic conditions (1% O2) using a Reming Bioinstruments chamber and oxygen regulator (Reming Bioinstruments, Redfield, N.Y.).
(§6) For quantification of DNA fragmentation, supernatants were centrifuged at 200×g. The cell pellet was washed once in PBS (pH 7.4) and lysed in a hypotonic lysis buffer (0.1% sodium citrate, 0.1% Triton X-100, 50 μg/ml propidiumiodite) at 4° C. overnight. The nuclei were then analyzed for DNA content by flow cytometry. The staining of cells for flow cytometry with mAbs and PE-conjugated secondary antibodies has been described. Cells were analysed with a FACScan using Cellquest or FlowJo software from Becton Dickinson (Heidelberg, Germany).

[6] = Induction of apoptosis, Nicoletti staining, in HEK293 cells; settings: human; wild-type (parental) HEK293; C2-ceramide 40 μM or staurosporine 2 μM, 24 h, serum-free, Nicoletti staining; read-out: cells still viable after treatment
Method: as §5, §6

[7] = test system: NO release; test: NO-assay in supernatants of PT45-P1res cells; settings: 250 ng/mL IL1-RA 24 hours
Method: PT45-P1res cells were transfected with a control siRNA or with a L1CAM specific siRNA. (a) RNA from transfected PT45-P1res cells was subjected to RT and subsequent Real-time PCR using primers specific for iNOS. In parallel, a Real-time PCR was conducted for β-actin, which was used as a control. Results from one representative out of three experiments are shown. Data are expressed as amount of mRNA in arbitrary units. Each sample was measured in duplicates. (b) siRNA transfected cells (16 h) were either left untreated or were treated with 250 ng/mL IL1RA for 24 hours. Then, supernatants were cleared and subjected to a commercial NO assay. The amount of NO was normalized to equal cell number which was determined in parallel (expressed as μmol NO/10^5 cells). (c) siRNA transfected cells (16 h) were either left untreated or were treated with 250 ng/mL IL1-RA and 20 μg/mL etoposide, either alone or in combination for 24 hours. Then, cells were analysed for caspase-3/-7 activity expressed as n-fold induced caspase-3/-7 activity of basal. Means±SD from three independent experiments are shown. * indicates p<0.05.
Cells were seeded for transfection and cultured as described above. […] NO secreted into cell culture supernatants was quantified using the Total nitric oxide (NO) calorimetric assay (R&D Systems). […] Concentrations of measured NO were normalized to the cell numbers determined in parallel.

## CC(=O)NC(C(=O)O)C(C)(C)SN=O (racemic) [SNAP, S-Nitroso-N-acetyl-D,L-penicillamine]
[1]; 200 μmol/L SNAP with 20 μg/mL etoposide, 24 hours
  increased caspase activity during L1CAM knock-down: completely reversed the increased caspase activity

## CNC(=O)[C@H](Cc1c[nH]c2ccccc12)NC(=O)[C@@H](CC(=O)NO)CC(C)C [GM6001]
[2]
  apoptosis inducing effect of etoposide (caspase-3/-7): nor affect the apoptosis inducing effect of etoposide
[3]
  L1CAM expression (full-length 220 kDa and 32 kD fragment): neither of the inhibitors changed L1 CAM expression
[1]
  apoptosis induction after etoposide treatment (caspase-3/-7): did not significantly affect apoptosis induction after etoposide treatment
[4]
  expression of full-length L1CAM and level of the 32 kD fragment: did neither influence the expression of full-length L1CAM nor increased the level of the 32 kD fragment

## CC(C)C[C@H](NC(=O)[C@H](Cc1ccccc1)C[C@@H](O)[C@H](Cc1ccccc1)NC(=O)OC(C)(C)C)C(=O)N[C@@H](Cc1ccccc1)C(N)=O [L685,458]
[2]
  apoptosis inducing effect of etoposide (caspase-3/-7): nor affect the apoptosis inducing effect of etoposide
[3]
  L1CAM expression (full-length 220 kDa and 32 kD fragment): neither of the inhibitors changed L1 CAM expression
[1]
  apoptosis induction after etoposide treatment (caspase-3/-7): did not significantly affect apoptosis induction after etoposide treatment
[4]
  expression of full-length L1CAM and level of the 32 kD fragment: did neither influence the expression of full-length L1CAM nor increased the level of the 32 kD fragment

## CC(C)C[C@H](CC(=O)NO)C(=O)N[C@@H](Cc1ccc2ccccc2c1)C(=O)N[C@@H](C)C(=O)NCCN [Tapi-1]
[2]
  apoptosis inducing effect of etoposide (caspase-3/-7): nor affect the apoptosis inducing effect of etoposide
[3]
  L1CAM expression (full-length 220 kDa and 32 kD fragment): neither of the inhibitors changed L1 CAM expression
[1]
  apoptosis induction after etoposide treatment (caspase-3/-7): did not significantly affect apoptosis induction after etoposide treatment
[4]
  expression of full-length L1CAM and level of the 32 kD fragment: did neither influence the expression of full-length L1CAM nor increased the level of the 32 kD fragment

## CN[C@@H]1C[C@H]2O[C@@](C)([C@@H]1OC)n1c3ccccc3c3c4c(c5c6ccccc6n2c5c31)C(=O)NC4 [staurosporine]
[5]
  viability at 24 h, 2 μM: 77%
[6]
  viability at 24 h, 2 μM: 59%

## IL1-RA: Interleukin 1 receptor antagonist from R&D Systems
[3]; 250 ng/mL IL1-RA, 6 or 24 hours
  L1CAM expression (mRNA and protein): reduced L1CAM expression
[1]; 250 ng/mL IL1-RA, control transfected cells
  etoposide induced caspase activation: increased
[7]; cells with L1CAM knock down
  NO levels: no further reducing effect
[7]; control siRNA transfected cells
  NO levels: could be decreased

— US20080299123A1, “TREATMENT OF CHEMOTHERAPY- OR RADIOTHERAPY-RESISTANT TUMORS” (Deutsches Krebsforschungszentrum Stiftung des offentlichen …, priority 2006, published 2008)
